Laboratory results: patent publication US20080051429A1, “USE OF 4-AMINO-PIPERIDINES FOR TREATING SLEEP DISORDERS” (priority 2006, published 2008)
Like-named read-outs stand apart in the source and are kept apart here.

What was measured:
Type in all cases: cell-based
5-HT2A receptor = target: T1, 5-HT2A receptor (Homo sapiens, UniProt P28223); experiment: R-SAT functional receptor assay; conditions: for EC50: agonist
T1 construct: expressed in transfected cells; host or cells: NIH3T3 cells, pSI expression vector
T1 sequence (P28223 whole entry): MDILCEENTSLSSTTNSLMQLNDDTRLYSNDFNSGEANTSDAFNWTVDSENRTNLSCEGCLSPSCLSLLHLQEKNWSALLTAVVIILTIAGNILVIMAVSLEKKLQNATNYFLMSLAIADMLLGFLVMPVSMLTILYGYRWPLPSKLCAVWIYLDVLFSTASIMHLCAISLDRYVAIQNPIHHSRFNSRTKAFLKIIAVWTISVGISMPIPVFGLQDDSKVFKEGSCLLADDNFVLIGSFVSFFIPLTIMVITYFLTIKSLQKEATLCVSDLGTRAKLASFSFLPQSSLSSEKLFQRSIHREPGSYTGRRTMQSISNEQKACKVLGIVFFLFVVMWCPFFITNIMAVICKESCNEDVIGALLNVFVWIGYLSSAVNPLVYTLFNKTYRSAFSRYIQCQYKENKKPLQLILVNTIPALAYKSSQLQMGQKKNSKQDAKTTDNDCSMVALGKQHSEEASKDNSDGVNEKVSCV

5-HT6 = target: T2, 5-HT6 (Homo sapiens, UniProt P50406); experiment: R-SAT broad profiling; conditions: read-out: pEC50/pIC50 (converted)
T2 construct: expressed in transfected cells
T2 sequence (P50406 whole entry, species assumed): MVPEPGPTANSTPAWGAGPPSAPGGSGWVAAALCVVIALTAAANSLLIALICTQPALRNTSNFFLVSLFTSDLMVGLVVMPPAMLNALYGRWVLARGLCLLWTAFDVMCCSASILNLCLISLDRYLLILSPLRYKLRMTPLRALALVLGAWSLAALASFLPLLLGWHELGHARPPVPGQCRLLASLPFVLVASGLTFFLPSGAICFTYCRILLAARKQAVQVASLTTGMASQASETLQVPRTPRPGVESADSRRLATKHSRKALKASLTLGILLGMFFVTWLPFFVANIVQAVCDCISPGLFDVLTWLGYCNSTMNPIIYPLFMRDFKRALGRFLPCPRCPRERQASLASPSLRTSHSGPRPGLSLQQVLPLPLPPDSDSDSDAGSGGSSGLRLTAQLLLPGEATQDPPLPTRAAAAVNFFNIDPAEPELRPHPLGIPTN
Method: (§1) The functional receptor assay, Receptor Selection and Amplification Technology (R-SAT), was used (with minor modifications from that previously described U.S. Pat. No. 5,707,798) to screen compounds for efficacy at the 5-HT2A receptor. Briefly, NIH3T3 cells were grown in 96 well tissue culture plates to 70-80% confluence. Cells were transfected for 12-16 hours with plasmid DNAs using superfect (Qiagen Inc.) as per manufacture's protocols. R-SAT's were generally performed with 50 ng/well of receptor and 20 ng/well of Beta-galactosidase plasmid DNA. All receptor and G-protein constructs used were in the pSI mammalian expression vector (Promega Inc) as described in U.S. Pat. No. 5,707,798. The 5HT2A receptor gene was amplified by nested PCR from brain cDNA using the oligodeoxynucleotides based on the published sequence (see Saltzman et. al. Biochem. Biophys. Res. Comm. 181:1469-78 (1991)). Large-scale transfections, cells were transfected for 12-16 hours, then trypsinized and frozen in DMSO. Frozen cells were later thawed, plated at 10,000-40,000 cells per well of a 96 well plate that contained drug. With both methods, cells were then grown in a humidified atmosphere with 5% ambient CO2 for five days. Media was then removed from the plates and marker gene activity was measured by the addition of the beta-galactosidase substrate ONPG (in PBS with 5% NP-40). The resulting colorimetric reaction was measured in a spectrophotometric plate reader (Titertek Inc.)at […]. All data were analyzed using the computer program XLFit (IDBSm). Efficacy is the percent maximal repression compared to repression by a control compound (ritanserin in the case of 5HT2A). pIC50 is the negative of the log(IC50), where IC50 is the calculated concentration in Molar that produces 50% maximal repression.
(§2) The R-SAT assay (described above in example 136) was used to investigate the selectivity of 2-(4-Methoxyphenyl)-N-(4-methylbenzyl)-N-(1-methylpiperidin-4-yl)acetamide hydrochloride.

alpha-1A(a/c) = target: T3, alpha-1A(a/c) (Homo sapiens, UniProt P35348); experiment: R-SAT broad profiling; conditions: read-out: pEC50/pIC50 (converted)
T3 construct: expressed in transfected cells; host or cells: NIH3T3
T3 sequence (P35348 whole entry): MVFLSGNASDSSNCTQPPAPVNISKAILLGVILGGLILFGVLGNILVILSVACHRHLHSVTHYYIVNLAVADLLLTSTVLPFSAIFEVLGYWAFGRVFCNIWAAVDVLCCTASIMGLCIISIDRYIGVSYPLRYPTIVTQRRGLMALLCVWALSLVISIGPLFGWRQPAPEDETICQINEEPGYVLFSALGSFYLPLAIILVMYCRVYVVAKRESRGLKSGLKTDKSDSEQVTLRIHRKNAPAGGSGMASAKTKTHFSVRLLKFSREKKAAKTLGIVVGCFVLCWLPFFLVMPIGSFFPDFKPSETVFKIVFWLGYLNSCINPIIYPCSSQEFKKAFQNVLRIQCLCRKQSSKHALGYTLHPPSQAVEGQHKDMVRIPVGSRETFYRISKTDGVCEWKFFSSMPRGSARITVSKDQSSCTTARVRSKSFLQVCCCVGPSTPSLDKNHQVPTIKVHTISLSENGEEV
Method: as §1, §2

beta 1 = target: T4, beta 1 (Homo sapiens, UniProt P08588); experiment: R-SAT broad profiling; conditions: read-out: pEC50/pIC50 (converted)
T4 construct: expressed in transfected cells; host or cells: NIH3T3
T4 sequence (P08588 whole entry): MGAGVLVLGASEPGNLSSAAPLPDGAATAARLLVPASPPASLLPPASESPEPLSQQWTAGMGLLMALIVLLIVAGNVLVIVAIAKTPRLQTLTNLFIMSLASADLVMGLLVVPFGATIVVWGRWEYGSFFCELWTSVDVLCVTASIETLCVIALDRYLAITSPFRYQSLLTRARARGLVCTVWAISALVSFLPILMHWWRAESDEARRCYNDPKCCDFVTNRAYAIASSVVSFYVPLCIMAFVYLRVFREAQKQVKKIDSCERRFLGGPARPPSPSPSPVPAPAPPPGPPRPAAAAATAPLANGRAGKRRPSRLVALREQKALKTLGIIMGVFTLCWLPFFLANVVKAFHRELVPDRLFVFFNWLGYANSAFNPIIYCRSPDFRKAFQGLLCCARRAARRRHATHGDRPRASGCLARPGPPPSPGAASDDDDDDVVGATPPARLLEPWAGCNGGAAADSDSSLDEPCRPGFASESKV
Method: as §1, §2

NK-1 = target: T5, NK-1 (Homo sapiens, UniProt P25103); experiment: R-SAT broad profiling; conditions: agonist; read-out: pEC50/pIC50 (converted)
T5 construct: expressed in transfected cells; host or cells: NIH3T3
T5 sequence (P25103 whole entry): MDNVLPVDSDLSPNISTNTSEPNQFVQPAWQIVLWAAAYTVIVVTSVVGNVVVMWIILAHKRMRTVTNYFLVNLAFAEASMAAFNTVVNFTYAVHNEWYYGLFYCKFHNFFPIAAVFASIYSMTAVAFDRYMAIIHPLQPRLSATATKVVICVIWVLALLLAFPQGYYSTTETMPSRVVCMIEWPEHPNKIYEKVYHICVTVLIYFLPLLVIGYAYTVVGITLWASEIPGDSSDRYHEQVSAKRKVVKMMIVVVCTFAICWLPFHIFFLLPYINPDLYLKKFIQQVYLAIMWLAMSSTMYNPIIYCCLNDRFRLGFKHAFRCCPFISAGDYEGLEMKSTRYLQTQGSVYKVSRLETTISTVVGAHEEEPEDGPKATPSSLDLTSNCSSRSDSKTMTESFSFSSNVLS
Method: as §1, §2

D5 = target: T6, D5 (Homo sapiens, UniProt P21918); experiment: R-SAT broad profiling; conditions: read-out: pEC50/pIC50 (converted)
T6 construct: expressed in transfected cells; host or cells: NIH3T3
T6 sequence (P21918 whole entry): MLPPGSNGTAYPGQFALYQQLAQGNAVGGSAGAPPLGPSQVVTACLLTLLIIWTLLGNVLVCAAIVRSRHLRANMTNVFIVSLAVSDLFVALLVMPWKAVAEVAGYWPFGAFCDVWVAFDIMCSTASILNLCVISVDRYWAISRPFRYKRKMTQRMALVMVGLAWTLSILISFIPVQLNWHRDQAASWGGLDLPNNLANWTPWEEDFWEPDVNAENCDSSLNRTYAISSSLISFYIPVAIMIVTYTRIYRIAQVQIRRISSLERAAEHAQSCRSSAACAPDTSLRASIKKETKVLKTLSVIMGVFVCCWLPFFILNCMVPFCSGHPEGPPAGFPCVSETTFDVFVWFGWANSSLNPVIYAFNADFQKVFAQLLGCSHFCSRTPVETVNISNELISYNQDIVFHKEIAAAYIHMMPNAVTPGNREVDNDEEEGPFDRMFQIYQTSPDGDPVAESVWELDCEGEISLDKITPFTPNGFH
Method: as §1, §2

m5 = target: T7, m5 (Homo sapiens, UniProt P08912); experiment: R-SAT broad profiling; conditions: read-out: pEC50/pIC50 (converted)
T7 construct: expressed in transfected cells; host or cells: NIH3T3
T7 sequence (P08912 1-532): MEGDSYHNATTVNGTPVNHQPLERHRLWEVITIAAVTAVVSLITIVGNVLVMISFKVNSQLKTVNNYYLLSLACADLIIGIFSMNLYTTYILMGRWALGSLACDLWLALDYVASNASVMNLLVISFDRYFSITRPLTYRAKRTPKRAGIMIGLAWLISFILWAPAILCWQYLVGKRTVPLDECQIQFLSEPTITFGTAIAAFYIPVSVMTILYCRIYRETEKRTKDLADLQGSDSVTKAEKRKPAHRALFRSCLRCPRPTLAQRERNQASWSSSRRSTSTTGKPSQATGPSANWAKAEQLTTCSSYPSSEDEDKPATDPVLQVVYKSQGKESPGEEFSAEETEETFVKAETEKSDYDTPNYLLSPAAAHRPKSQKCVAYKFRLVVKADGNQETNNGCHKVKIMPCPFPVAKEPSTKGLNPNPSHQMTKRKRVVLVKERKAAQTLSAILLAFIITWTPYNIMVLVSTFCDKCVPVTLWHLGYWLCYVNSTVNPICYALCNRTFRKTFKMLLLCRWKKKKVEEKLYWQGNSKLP
Method: as §1, §2

D1 = target: T8, D1 (Homo sapiens, UniProt P21728); experiment: R-SAT broad profiling; conditions: read-out: pEC50/pIC50 (converted)
T8 construct: expressed in transfected cells; host or cells: NIH3T3
T8 sequence (P21728 whole entry): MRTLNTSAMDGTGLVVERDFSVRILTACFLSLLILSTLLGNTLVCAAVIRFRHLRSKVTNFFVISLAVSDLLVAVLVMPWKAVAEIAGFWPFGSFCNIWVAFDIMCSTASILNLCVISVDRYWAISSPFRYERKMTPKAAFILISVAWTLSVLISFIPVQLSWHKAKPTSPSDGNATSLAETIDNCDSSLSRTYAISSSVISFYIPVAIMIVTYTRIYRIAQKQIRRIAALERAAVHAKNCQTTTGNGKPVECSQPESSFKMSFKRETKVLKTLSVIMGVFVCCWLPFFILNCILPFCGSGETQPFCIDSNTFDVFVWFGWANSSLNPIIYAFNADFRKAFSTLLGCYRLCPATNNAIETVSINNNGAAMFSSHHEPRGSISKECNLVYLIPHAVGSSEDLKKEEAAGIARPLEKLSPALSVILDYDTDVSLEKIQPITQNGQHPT
Method: as §1, §2

5-HT4 = target: T9, 5-HT4 (Homo sapiens, UniProt Q13639); experiment: R-SAT broad profiling; conditions: read-out: pEC50/pIC50 (converted)
T9 construct: expressed in transfected cells
T9 sequence (Q13639 1-387 isoform Q13639-2, species assumed): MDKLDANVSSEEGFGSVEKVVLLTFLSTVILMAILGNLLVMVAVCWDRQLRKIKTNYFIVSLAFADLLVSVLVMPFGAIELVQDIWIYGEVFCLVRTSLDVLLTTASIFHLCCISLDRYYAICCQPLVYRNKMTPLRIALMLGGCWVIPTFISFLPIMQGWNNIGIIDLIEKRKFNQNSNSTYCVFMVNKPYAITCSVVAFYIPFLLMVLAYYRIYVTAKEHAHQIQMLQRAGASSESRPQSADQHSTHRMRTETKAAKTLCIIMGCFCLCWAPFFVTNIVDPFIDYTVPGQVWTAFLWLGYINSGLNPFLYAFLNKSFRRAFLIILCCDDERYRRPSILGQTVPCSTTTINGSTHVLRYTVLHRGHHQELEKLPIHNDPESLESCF
Method: as §1, §2

Histamine 2 = target: T10, Histamine 2 (Homo sapiens, UniProt P25021); experiment: R-SAT broad profiling; conditions: read-out: pEC50/pIC50 (converted)
T10 construct: expressed in transfected cells; host or cells: NIH3T3
T10 sequence (P25021 whole entry): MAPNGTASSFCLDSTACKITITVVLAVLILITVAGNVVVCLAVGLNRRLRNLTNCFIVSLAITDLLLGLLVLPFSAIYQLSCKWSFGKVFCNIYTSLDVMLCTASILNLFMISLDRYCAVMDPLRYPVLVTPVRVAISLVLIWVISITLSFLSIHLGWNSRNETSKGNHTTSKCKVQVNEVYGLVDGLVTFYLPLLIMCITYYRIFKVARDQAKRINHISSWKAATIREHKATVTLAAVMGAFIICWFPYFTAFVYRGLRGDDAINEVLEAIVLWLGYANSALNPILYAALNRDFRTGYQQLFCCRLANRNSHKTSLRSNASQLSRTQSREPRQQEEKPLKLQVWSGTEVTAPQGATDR
Method: as §1, §2

D3 = target: T11, D3 (Homo sapiens, UniProt P35462); experiment: R-SAT broad profiling; conditions: read-out: pEC50/pIC50 (converted)
T11 construct: expressed in transfected cells; host or cells: NIH3T3
T11 sequence (P35462 whole entry): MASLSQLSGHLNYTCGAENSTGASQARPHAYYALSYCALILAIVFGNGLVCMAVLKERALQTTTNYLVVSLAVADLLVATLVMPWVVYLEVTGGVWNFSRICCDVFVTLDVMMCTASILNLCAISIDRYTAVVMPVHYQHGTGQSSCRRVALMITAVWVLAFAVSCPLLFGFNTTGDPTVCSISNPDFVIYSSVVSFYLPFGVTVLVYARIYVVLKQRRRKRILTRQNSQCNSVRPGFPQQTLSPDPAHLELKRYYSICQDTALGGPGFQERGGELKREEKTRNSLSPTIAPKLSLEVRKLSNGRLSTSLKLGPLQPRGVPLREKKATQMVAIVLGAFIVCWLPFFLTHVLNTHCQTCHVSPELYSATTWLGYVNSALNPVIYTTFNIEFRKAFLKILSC
Method: as §1, §2

Q: Which results are given for `CC(C)COc1ccc(CN2C(=O)OC3(CCN(C)CC3)C2Cc2ccc(F)cc2)cc1.Cl` (racemic) [Example 69NLS75, 4-(4-Fluorobenzyl)-3-(4-isobutoxybenzyl)-8-methyl-1-oxa-3,8-diazaspiro[4.5]decan-2-one, hydrochloride]?
A: EC50 (5-HT2A receptor; read-out: pEC50 or pIC50 (converted)): > 3.16 µM; 5HT2A % inhibition (5-HT2A receptor; compared to ritanserin): 94%; efficacy in brackets (5-HT2A receptor; inverse): 94%

Q: What does the source list for `COc1ccc(CC(=O)N(Cc2ccc(C)cc2)C2CCN(C)CC2)cc1` [Example 50ELH27, 2-(4-Methoxyphenyl)-N-(4-methylbenzyl)-N-(1-methylpiperidin-4-yl)acetamide]?
A: IC50 (5-HT6; Inv. Agonist): 0.158 µM; EC50 (5-HT6; agonist): > 3.16 µM; EC50 (alpha-1A(a/c); agonist): > 3.16 µM; IC50 (alpha-1A(a/c); antagonist): > 3.16 µM; EC50 (beta 1; agonist): > 3.16 µM; IC50 (beta 1; antagonist): > 3.16 µM; EC50 (NK-1): > 3.16 µM; EC50 (D5; agonist): > 3.16 µM; IC50 (D5; antagonist): > 3.16 µM; EC50 (m5; agonist): > 3.16 µM; IC50 (m5; antagonist): > 3.16 µM; EC50 (D1; agonist): > 3.16 µM; IC50 (D1; antagonist): > 3.16 µM; EC50 (5-HT4; agonist): > 3.16 µM; IC50 (5-HT4; inverse agonist): > 3.16 µM; EC50 (Histamine 2; agonist): > 3.16 µM; IC50 (Histamine 2; antagonist): > 3.16 µM; EC50 (D3; agonist): > 3.16 µM; IC50 (D3; antagonist): > 3.16 µM; Emax (5-HT2A receptor; 120 h, read-out: Percent Efficacy, compared to ritanserin): 108%; IC50 (5-HT2A receptor; Table 3, read-out: pIC50 (converted)): 0.002 µM; EC50 (5-HT2A receptor; read-out: pEC50/pIC50 (converted)): > 3.16 µM; IC50 (5-HT2A receptor; inverse agonist, read-out: pEC50/pIC50 (converted)): 0.00158 µM
